{"source": "patent US8785400B2", "about": "“Methods and compositions relating to islet cell neogenesis” (CureDM Group Holdings, LLC, priority 2006, dated 2014)", "key": {"[1]": {"system": "human cell cultures (mixed islets and ductal tissue cultures)", "experiment": "Insulin content by RIA, mixed human islet and ductal cultures (Example 2)", "type": "cell-based", "settings": "vs HIP1, HIP, hamster INGAP, saline; FIG. 3", "procedure": "HIP2, HIP1, HIP, controls and progenitor fractions were cultured over 10 days, according to standard protocol. Briefly, pancreata from adult human cadaveric organ donors were obtained through the local organ procurement organization. Islets were isolated according to established protocols described by Bonner-Weir and Jamal. (Bonner-Weir et al. Pediatric Diabetes: 2004; 5 (Suppl 2): 16-22. Jamal et al. Cell Death Differ. 2005 July; 12(7): 702-12). HIP2, HIP1, HIP and INGAP were synthesized by Bachem Bioscience, Malvern, Pa. and were quality tested by HPCL to be greater than 95% pure. Each peptide was provided in lyophilized powder and was resuspended in isotonic saline solution. Stock solutions were made so that only 1-2 ul aliquots were added to primary cell cultures to reach the final concentrations provided below. Stock solutions were frozen and thawed a total of three times for the six day treatment. […]\nPancreata from adult human cadaveric organ donors were obtained through the local organ procurement organization. […] Free islets with diameters ranging from 75 to 400 μm, determined to be greater than 90% pure by staining with dithizone (Sigma) a zinc chelater, were collected and washed. […]\nInsulin levels were detected by Radioimmunoassay (RIA) from cultures treated with saline only (s/0), HIP2, HIP1, HIP and hamster INGAP. […]"}, "NOD mice": {"system": "NOD mice", "experiment": "NOD mouse model of type 1 diabetes (Example 5)", "type": "in vivo", "settings": "250 ug/dose i.p. twice daily, 28 days, with anti-CD3, vs other test agents", "excerpt": "The non-obese diabetic (NOD) mouse strain has long been studied as an excellent model of type 1 diabetes because it spontaneously develops a disease that is very similar to the human condition. Diabetes in NOD mice is mediated by inflammatory autoreactive T cells that recognize pancreatic islet antigens and escape central and peripheral tolerance. In a parental colony of NOD mice, incidence of diabetes in female NOD mice is typically 75-90% by 30 weeks but may exceed 90% in some cohorts. In this example, 50 female NOD mice, ranging from 13-14 weeks old at the outset of the study, are used to test the effectiveness of HIP2 as compared to other test agents. Due to the unexpected variability of the degree of onset of disease, the number used in this example (50 female mice) is considered to be the minimum needed to result in a sufficient number of mice that will onset with disease within the timeframe of the study.\nAnimals were group housed in compliance with the National Research Council “Guide for the Care and Use of Laboratory Animals”. The animals received 12 hours light/12 hours dark, except when room lights were turned on during the dark cycle to accommodate study procedures. Room temperature was maintained between 18 to 26° C. at all times. […]\nBlood glucose levels are measured every 3 days and tracked to evaluate differences in glucose levels."}, "[2]": {"system": "pancreatic islets of treated mice", "experiment": "Quantitative immunohistochemistry image analysis of mouse pancreata (Example 7)", "type": "in vivo", "settings": "vs control", "excerpt": "The islet mass of the placebo group was 854,362 μm (2) compared with 2,161,782 μm (2) in HIP-treated mice.\nIslet size was not different between HIP treated and control group, whereas, islet number and mass was increased."}}}
{"substance": "HIP2: Human proIslet Peptide, fragment of human REG3A, in purified, synthetic, or recombinant form (SEQ ID NO:4) (IGLHDPTQGTEPNG; Fragment of naturally occurring human REG3 protein)", "values": [{"measurement": "increased bioactivity over the other agents used (insulin, RIA)", "setting": "[1]", "value": "1.50-3.33 fold"}, {"measurement": "blood glucose levels", "setting": "NOD mice", "value": "pronounced reduction"}, {"measurement": "insulinitis in pancreas", "setting": "NOD mice", "value": "decreased showing of insulinitis"}, {"measurement": "total islet mass (qualitative)", "setting": "[2]", "value": "increased total islet mass"}, {"measurement": "total islet number (qualitative)", "setting": "[2]", "value": "increased total islet number"}]}
